Experimental data: patent publication US9718835B2 (China Medical University Hospital, priority 2013, dated 2017)
Where two headings read alike, the source gives them in different places.

Assays:
[1] = system: DU-145 (hormone-insensitive prostate cancer); experiment: Sulforhodamine B cytotoxicity assay, DU-145; format: cell-based, human; conditions: Homo sapiens, DU-145; Table 1; 72 h; average ± SD
Experimental: (§1) The 12 novel 1-derivatives 9a-l were evaluated for in vitro antiproliferative activity against four human tumor cell lines, KB (nasopharyngeal), A-549 (lung), DU-145 (prostate), and KBvin (MDR KB subline), by using a sulforhodamine B colorimetric assay with triplicate experiments.^30 Compounds 1 and 3 were used as controls.
(§2) The human tumor cell lines used in this manuscript were A-549 (lung carcinoma), MDA-MB-231 (triple-negative breast cancer), DU-145 (hormone-insensitive prostate cancer), KB (originally isolated from epidermoid carcinoma of the nasopharynx), KBvin (vincristine-resistant KB subline), and HCT116 (colorectal adenocarcinoma). These cell lines were obtained from the Lineberger Comprehensive Cancer Center (UNC-CH) or from ATCC (Manassas, Va.), except KBvin, which was a generous gift of Professor Y.-C. Cheng (Yale University). All cell lines were maintained and assayed in RPMI-1640 medium containing 2 mM L-glutamine and 25 mM HEPES (HyClone), supplemented with 10% heat-inactivated fetal bovine serum (HyClone), 100 μg/mL streptomycin, 100 IU/mL penicillin, and 0.25 μg/mL amphotericin B (Cellgro) in a humidified atmosphere containing 5% CO2 in air. Compound stock solutions were prepared at 10 mM in DMSO and diluted with culture medium with the final DMSO concentration ≦0.01% (v/v), a concentration without effect on cell growth. The 4-6×10^3 cells/well were cultured for 72 h with various concentrations of test compounds in 96-well plate at 37° C. […] Each assay was performed in triplicate with duplicated samples.

[2] = target: T1, recombinant human Topoisomerase I (Homo sapiens, UniProt P11387); experiment: Topoisomerase I activity assay in a cell-free system; format: biochemical; conditions: purified recombinant human Topo I
T1 construct: purchased TopoGEN
T1 sequence (P11387 1-765): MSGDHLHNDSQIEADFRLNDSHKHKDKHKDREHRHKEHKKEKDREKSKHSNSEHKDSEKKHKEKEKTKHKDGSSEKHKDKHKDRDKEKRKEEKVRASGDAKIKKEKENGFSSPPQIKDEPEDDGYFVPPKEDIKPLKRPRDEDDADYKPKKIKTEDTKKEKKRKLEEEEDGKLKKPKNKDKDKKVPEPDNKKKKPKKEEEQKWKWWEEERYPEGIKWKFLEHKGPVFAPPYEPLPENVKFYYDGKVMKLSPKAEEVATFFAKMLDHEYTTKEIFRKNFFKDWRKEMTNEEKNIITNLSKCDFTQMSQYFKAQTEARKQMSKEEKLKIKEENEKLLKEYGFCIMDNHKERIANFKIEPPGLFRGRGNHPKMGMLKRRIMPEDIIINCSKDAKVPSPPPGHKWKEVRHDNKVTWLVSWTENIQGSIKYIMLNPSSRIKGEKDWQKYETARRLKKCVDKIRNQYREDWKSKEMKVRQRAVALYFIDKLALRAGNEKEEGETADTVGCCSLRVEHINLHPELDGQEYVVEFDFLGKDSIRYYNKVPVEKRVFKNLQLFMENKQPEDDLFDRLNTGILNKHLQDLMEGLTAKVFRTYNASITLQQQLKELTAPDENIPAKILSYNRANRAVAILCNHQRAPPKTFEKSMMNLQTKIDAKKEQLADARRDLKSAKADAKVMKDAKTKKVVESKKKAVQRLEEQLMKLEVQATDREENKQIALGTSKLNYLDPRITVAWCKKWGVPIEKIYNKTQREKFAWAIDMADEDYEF
Experimental: Inhibition of Topo I activity by 9a in a cell-free system. A 1-delivative with an esterified 20-hydroxy group is expected to be activated by digestion with carboxylesterases. […] We authenticated the inhibitory effect of 9a against Topo I in a dose-dependent manner Thus, we confirmed that 9a is a new class of Topo I inhibitor.
One unit of recombinant human Topoisomerase I enzyme (TopoGEN) was pre-incubated for 20 min at 37° C. with vehicle, 9a, 1, 3, or SN-38 in a final volume of 20 μL reaction buffer (10 mM Tris-HCl, pH 7.9, 1 mM EDTA, 150 mM NaCl, 0.1% BSA, 0.1 mM spermidine, 5% glycerol) was then incubated with 250 ng of supercoiled plasmid DNA for 20 min. The supercoiled, relaxed, or nicked DNA was separated by 1% agarose gel in 1×TAE (Tris-Acetate-EDTA) buffer. Ethidium bromide stained agarose gel was photographed using Gel Doc XR (Bio-Rad).

[3] = system: Topo II; experiment: Topo II activity assay, nuclear extracts of treated A-549 cells, catenated kDNA; format: cell-based, human
Source text: First, we determined the effect of 9a on cell cycle distribution using flow cytometry analysis. […] Because it has been shown that 1-Topo I-DNA covalent complexes enhance the transcription-dependent degradation of Topo I via a 26S proteasome pathway,^32 the effects of 9a on the expression levels of Topo I and Topo II were investigated. […] Compound 9a acts directly on Topo I and results in the accumulation of covalent Topo I-DNA complexes followed by proteasomal Topo I degradation, which is the same effect as 1 and contributes to 9a's cytotoxicity.
(§3) Topo I activity test was performed using an assay kit (TopoGEN) according to the manufacturer's instructions. Nuclear extracts from 9a-treated A-549 cells were incubated with supercoiled DNA (for Topo I) or catenated kDNA (for Topo II) for 30 min at 37° C. Reaction mixture was separated by is 1% agarose gel in 1×TAE buffer. The gel was stained with ethidium bromide and photographed using Gel Doc XR (Bio-Rad).

[4] = i.p.; cited from earlier work
[5] = target: T2, Topo I (Homo sapiens, UniProt P11387); experiment: Topo I activity assay, nuclear extracts of treated A-549 cells, supercoiled DNA; format: cell-based; design: Nuclear extracts from 9a-treated A-549 cells were incubated with supercoiled DNA (for Topo I); endogenous in cells; host or cells: A-549
T2 sequence (P11387 1-765): T1 sequence (P11387 1-765)
Experimental: First, we determined the effect of 9a on cell cycle distribution using flow cytometry analysis. […] Because it has been shown that 1-Topo I-DNA covalent complexes enhance the transcription-dependent degradation of Topo I via a 26S proteasome pathway,^32 the effects of 9a on the expression levels of Topo I and Topo II were investigated.
as §3

[6] = system: A-549 (lung carcinoma); experiment: Sulforhodamine B cytotoxicity assay, A-549; format: cell-based, human; conditions: Homo sapiens, A549; Table 1; 72 h; average ± SD
Source text: as §2, with “Compound stock solutions were prepared at 10 mM in DMSO and diluted with culture medium with the final DMSO concentration ≦0.01% (v/v), a concentration without effect on cell growth.” left out

[7] = system: KB (epidermoid carcinoma of the nasopharynx); experiment: Sulforhodamine B cytotoxicity assay, KB; format: cell-based, human; conditions: Homo sapiens
Experimental: as §1, §2

[8] = system: KBvin (vincristine-resistant KB subline); experiment: Sulforhodamine B cytotoxicity assay, KBvin; format: cell-based, human; conditions: Homo sapiens, KBVIN
Source text: as §2, with “Compound stock solutions were prepared at 10 mM in DMSO and diluted with culture medium with the final DMSO concentration ≦0.01% (v/v), a concentration without effect on cell growth.” left out

[9] = system: human colorectal adenocarcinoma HCT116 xenograft; experiment: Xenograft model antitumor assay; format: in vivo, nu/nu mice
Experimental: Xenograft model antitumor assay using human colorectal adenocarcinoma cell line HCT116 was performed according to the regimen in Table 2. The 31-day study utilized four groups of mice (n=8) bearing established HCT116 xenograft with mean volumes of approximately 200 mm^3 on day one. The tumor growth and animal body weight change for each treatment group were measured three times per week (FIGS. 2 and 3). Compound 9a was administered intravenously (i.v.) for 7 days and then intraperitoneally (i.p.) at 5 and 10 mg/kg once every day (QD) to the end.
Five- to six-week-old female nu/nu mice (National Laboratory Animal Center, Taiwan) were inoculated subcutaneously with 2×10^6 human colorectal adenocarcinoma HCT116 cells in flank. When the grafted tumor volume reached the average volume of 200 mm^3, mice were randomly divided into four groups (n=8). Vehicle control and compound 9a at 5 or 10 mg/kg were administered i.v. once a day (QD) for 7 days and then i.p. once a day to the end. As an experimental control group, 100 mg/kg of compound 3 was administered i.v. once a week (QWK) to the end. The length (L) and width (W) of graft was measured every 3 to 4 days to the end, and the tumor volume was calculated as LW^2/2. Results were evaluated statistically by Student's t-test. This study was approved by the Institutional Animal Care and Use Committee (IACUC) of the National Taiwan University (Taipei, Taiwan), and was performed according to the institutional guidelines.

[10] = system: MDA-MB-231 (triple-negative breast cancer); experiment: Sulforhodamine B cytotoxicity assay, MDA-MB-231; format: cell-based; conditions: Homo sapiens, Table 4, read-out: IC50 (Average ± SD) MDA-MB-231
Source text: as §2, with “Compound stock solutions were prepared at 10 mM in DMSO and diluted with culture medium with the final DMSO concentration ≦0.01% (v/v), a concentration without effect on cell growth.” left out

For CC[C@@]1(O)C(=O)OCc2c1cc1n(c2=O)Cc2cc3ccccc3nc2-1 [Compound 1, Camptothecin, reference compound], the IC50 [1] was 29 ± 2.5 nM, the “Inhibition of Topo I activity (relaxation/nicking of supercoiled plasmid DNA)” value [2] was “inhibited Topo I activity” and the “Topo II decatenation of kDNA” value [3] was “failed to decatenate kineoplast DNA”. The LD50 [4] was 56.2 mg/kg and the “Topo I-mediated relaxation of supercoiled DNA” value [5] was “inhibited the relaxation of supercoiled DNA”.
For COc1cc([C@@H]2c3cc4c(cc3[C@@H](O[C@@H]3O[C@@H]5CO[C@@H](C)O[C@H]5[C@H](O)[C@H]3O)[C@H]3COC(=O)[C@H]23)OCO4)cc(OC)c1O [etoposide], the “Topo II decatenation of kDNA” value [3] was “effectively blocked the decatenation of kDNA”.
CCc1c2c(nc3ccc(OC(=O)N4CCC(N5CCCCC5)CC4)cc13)-c1cc3c(c(=O)n1C2)COC(=O)[C@]3(O)CC [Compound 3, irinotecan, reference compound] gave an IC50 [6] of 9500 ± 110 nM, an IC50 [1] of 9300 ± 610 nM and an IC50 ([7]; Table 1, 72 h, average ± SD, read-out: IC50 KB) of 9800 ± 480 nM. For the same molecule, the IC50 ([8]; Table 1, 72 h, average ± SD, read-out: IC50 KBvin) was over 20000 nM, the “Inhibition of Topo I activity (relaxation/nicking of supercoiled plasmid DNA)” value [2] was “no inhibitory effect on Topo I activity” and the “mice showing complete regression” value ([9]; 100 mg/kg QWK i.v., n=8) was “three mice”. For the same molecule, the “antitumor activity in vivo (tumor growth)” value ([9]; 100 mg/kg QWK, P<0.001) was “exhibited antitumor activity” and the LD50 [4] was 177.5 mg/kg.
Work on CC[C@@]1(O)C(=O)OCc2c1cc1n(c2=O)Cc2cc3c(CN(C)C)c(O)ccc3nc2-1 [Compound 2, topotecan, reference compound] yielded an IC50 ([7]; Table 4, read-out: IC50 (Average ± SD) KB) of 63 ± 4.2 nM, an IC50 ([8]; Table 4, read-out: IC50 (Average ± SD) KBvin) of 400 ± 21 nM and an IC50 [10] of 100 ± 5.5 nM.
